Measurements reported in ChEMBL document CHEMBL5113518, “Discovery of a Novel G-Quadruplex and Histone Deacetylase (HDAC) Dual-Targeting Agent for the Treatment of Triple-Negative Breast Cancer” (J Med Chem, 2022).
Calls of active or inactive are those of the source. The rule behind the calls is not given here.

How the values were obtained:
Histone deacetylase = assay: Inhibition of HDAC in human HeLa nuclear extract incubated for 30 mins by fluorescence-based Glo-luminescence assay; type: cell-based
Histone deacetylase 1 = Histone deacetylase 1 (Homo sapiens, UniProt Q13547); assay: Inhibition of full length recombinant C-terminal GST-tagged human HDAC1 expressed in baculovirus infected Sf9 insect cells incubated for 50 mins by Glo- luminescence assay
Chain of Histone deacetylase 1 (Q13547 whole entry): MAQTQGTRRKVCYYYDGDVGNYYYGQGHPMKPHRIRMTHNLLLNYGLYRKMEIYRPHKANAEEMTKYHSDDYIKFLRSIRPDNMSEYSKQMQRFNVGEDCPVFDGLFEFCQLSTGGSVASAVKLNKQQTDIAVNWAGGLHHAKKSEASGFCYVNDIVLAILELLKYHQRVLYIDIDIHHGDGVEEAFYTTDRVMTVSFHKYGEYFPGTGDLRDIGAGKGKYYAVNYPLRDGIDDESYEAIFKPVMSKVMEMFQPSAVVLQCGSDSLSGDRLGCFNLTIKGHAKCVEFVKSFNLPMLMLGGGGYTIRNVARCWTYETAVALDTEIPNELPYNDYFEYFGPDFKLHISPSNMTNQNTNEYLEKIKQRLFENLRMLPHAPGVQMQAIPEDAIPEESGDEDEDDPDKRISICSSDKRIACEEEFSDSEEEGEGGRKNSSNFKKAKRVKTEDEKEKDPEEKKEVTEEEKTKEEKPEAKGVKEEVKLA

Histone deacetylase 8 = target: T1, Histone deacetylase 8 (Homo sapiens, UniProt Q9BY41); assay: Inhibition of full length recombinant N-terminal GST-tagged human HDAC8 expressed in baculovirus infected Sf9 insect cells incubated for 50 mins by Glo- luminescence assay
T1 sequence (Q9BY41 whole entry): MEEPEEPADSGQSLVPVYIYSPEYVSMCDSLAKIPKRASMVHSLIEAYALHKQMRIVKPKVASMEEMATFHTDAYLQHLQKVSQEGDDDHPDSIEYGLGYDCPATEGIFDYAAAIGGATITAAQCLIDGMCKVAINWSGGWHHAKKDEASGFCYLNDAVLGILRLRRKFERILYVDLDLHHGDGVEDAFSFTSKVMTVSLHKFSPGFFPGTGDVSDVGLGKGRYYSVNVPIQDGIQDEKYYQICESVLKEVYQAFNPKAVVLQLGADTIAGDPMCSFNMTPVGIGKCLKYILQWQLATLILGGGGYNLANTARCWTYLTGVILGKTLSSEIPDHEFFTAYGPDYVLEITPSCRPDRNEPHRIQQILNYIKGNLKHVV

[1] = target: T2, Protein deacetylase HDAC6 (Homo sapiens, UniProt Q9UBN7); assay: Inhibition of full length recombinant N-terminal GST-tagged human HDAC6 expressed in baculovirus infected Sf9 insect cells incubated for 50 mins by Glo- luminescence assay
T2 sequence (Q9UBN7 whole entry): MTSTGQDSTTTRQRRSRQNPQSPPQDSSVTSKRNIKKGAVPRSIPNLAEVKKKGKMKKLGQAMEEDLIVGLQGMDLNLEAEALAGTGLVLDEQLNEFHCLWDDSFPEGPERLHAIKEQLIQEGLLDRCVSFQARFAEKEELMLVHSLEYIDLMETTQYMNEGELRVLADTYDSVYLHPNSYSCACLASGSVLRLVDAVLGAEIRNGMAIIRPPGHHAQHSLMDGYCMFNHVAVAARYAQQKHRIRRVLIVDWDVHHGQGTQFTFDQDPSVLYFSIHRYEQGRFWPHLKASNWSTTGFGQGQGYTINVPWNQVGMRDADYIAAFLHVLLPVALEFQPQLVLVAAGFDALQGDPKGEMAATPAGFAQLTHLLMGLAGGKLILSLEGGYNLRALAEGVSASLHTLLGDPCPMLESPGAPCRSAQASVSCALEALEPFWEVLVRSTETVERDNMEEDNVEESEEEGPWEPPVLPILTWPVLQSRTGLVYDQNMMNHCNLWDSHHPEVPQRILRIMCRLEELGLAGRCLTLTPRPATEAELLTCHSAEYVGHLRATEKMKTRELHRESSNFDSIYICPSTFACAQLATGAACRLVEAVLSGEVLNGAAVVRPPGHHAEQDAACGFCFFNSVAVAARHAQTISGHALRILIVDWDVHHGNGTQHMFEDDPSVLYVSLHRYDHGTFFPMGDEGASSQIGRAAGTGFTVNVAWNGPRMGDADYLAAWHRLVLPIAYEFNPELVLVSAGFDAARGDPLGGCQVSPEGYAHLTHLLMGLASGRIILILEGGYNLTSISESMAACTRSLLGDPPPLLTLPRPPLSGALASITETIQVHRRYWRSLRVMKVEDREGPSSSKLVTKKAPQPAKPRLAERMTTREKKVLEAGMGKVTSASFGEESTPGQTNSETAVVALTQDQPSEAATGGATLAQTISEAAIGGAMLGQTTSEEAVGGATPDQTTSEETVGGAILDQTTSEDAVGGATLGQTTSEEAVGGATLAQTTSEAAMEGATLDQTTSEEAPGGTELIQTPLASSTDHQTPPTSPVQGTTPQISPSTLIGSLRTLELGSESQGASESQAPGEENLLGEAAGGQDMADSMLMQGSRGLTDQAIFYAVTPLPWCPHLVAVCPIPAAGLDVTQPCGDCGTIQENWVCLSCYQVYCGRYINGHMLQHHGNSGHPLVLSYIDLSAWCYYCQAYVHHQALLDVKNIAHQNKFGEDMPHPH

Quadruplex DNA [2] = assay: Binding affinity to 5' FAM-labeled c-myc G4-quadruplex DNA Pu22 (unknown origin) assessed as dissociation constant by surface plasmon resonance assay; type: nucleic-acid assay
Quadruplex DNA [3] = assay: Binding affinity to 5' FAM-labeled […] (unknown origin) assessed as dissociation constant by surface plasmon resonance assay; type: nucleic-acid assay
Quadruplex DNA [4] = assay: Binding affinity to 5' FAM and 3' TAMRA-labeled c-myc G4-quadruplex DNA duplex (unknown origin) assessed as change in melting temperature by fluorescence resonance energy transfer assay; type: nucleic-acid assay
[5] = Stabilization of DNA Pu22 (unknown origin ) single strand assessed as G4-quadruplex formation up to 30 uM in presence of potassium ions by spectrum based circular dichroism analysis
[6] = Stabilization of DNA Pu22 (unknown origin ) single strand assessed as G4-quadruplex formation in absence of potassium ions by spectrum based circular dichroism analysis; conditions: dose <= 30.0 µM; DDE = dose-dependent effect
MDA-MB-231 [7] = assay: Stabilization of DNA Pu22 (unknown origin ) in human MDA-MB-231 cells assessed as G4-quadruplex formation by measuring fold change at 1.25 to 5 uM incubated for 48 hrs by immunofluorescence based confocal laser scanning microscopic analysis; type: cell-based; conditions: dose 1.25-5 µM
MDA-MB-231 [8] = assay: Induction of cell cycle arrest in human MDA-MB-231 cells assessed as accumulation at G2/M phase at 2.5 uM measured for 6 to 48 hrs; type: functional, cell-based; conditions: time 6-48 hrs
MDA-MB-231 [9] = assay: Inhibition of cell invasion in human MDA-MB-231 cells at 2.5 uM incubated for 48 hrs by crystal violet staining based transwell assay; type: functional
BT-549 [10] = assay: Cytotoxicity against human BT-549 cells harboring wild type BRCA1 and wild type BRCA2 assessed as reduction in cell viability; type: functional, cell-based
BT-549 [11] = assay: Inhibition of colony formation in human BT-549 cells measured for 7 days by crystal violet staining based assay; type: functional, cell-based; conditions: dose 2.5 µM, time 7.0 day, DDE = dose-dependent effect
[12] = target: Histone deacetylase (Homo sapiens) (UniProt Q13547+O15379+Q9UBN7+Q92769+Q9UQL6+Q8WUI4+Q9BY41+Q96DB2+P56524+Q9UKV0+Q969S8); assay: Inhibition of HDAC in human SUM159PT cells assessed as increase in acetylated alpha-tubulin level at 1.25 to 5 uM by Western blot analysis; type: cell-based; conditions: dose 1.25-5 µM
[13] = Elimination half life in Sprague-Dawley rat at 2 mg/kg, iv measured up to 24 hrs by LC-MS/MS analysis; type: ADME, organism-based; conditions: in vivo, read-out: beta t1/2 (converted)
MDA-MB-231 [14] = assay: Antitumor activity against human MDA-MB-231 cells xenografted in BALB/c-nu/nu mouse assessed as increment ratio at 2.5 mg/kg, ip measured for 31 days; type: functional; conditions: time 31 day
Quadruplex DNA [15] = conditions: dose 1.0 µM
Description: Binding affinity to 5' FAM and 3' TAMRA-labeled c-myc G4-quadruplex DNA Pu22 (unknown origin) assessed as change in melting temperature at 1 uM by fluorescence resonance energy transfer assay

IC50 (Histone deacetylase): 1900 nM | IC50 (Histone deacetylase 1): 1260 nM | IC50 (Histone deacetylase 8): 30 nM | IC50 [1]: 650 nM | Kd (Quadruplex DNA [2]): 1600 nM | Kd (Quadruplex DNA [3]): 4500 nM | ΔTm (Quadruplex DNA [4]): 0.1 °C | Activity [5]: Active | Activity [6]: Dde | inhibition [12]: Active | half-life [13]: 7.4 h | ΔTm (Quadruplex DNA [15]): 16.7 °C
SMILES: CN(C)CCCNC(=O)c1ccc(/C=C2\CCn3c2nc2cc(N4CCN(CCCCCCCC(=O)NO)CC4)c(F)cc2c3=O)cc1.Cl
fold change (FC) (MDA-MB-231 [7]): 8 | Activity (MDA-MB-231 [8]): Active | inhibition (MDA-MB-231 [9]): Active | IC50 (BT-549 [10]): 6500 nM | inhibition (BT-549 [11]): Dde | T/C (MDA-MB-231 [14]): 36.2%
